Reference: patent US20180221306A1, “PHARMACEUTICAL COMPOSITIONS OF 5-HYDROXY-2-METHYLNAPHTHALENE-1,4-DIONE” (PellFiCure Pharmaceuticals, Inc., priority 2016, published 2018)
Marks after values point to notes of the source that are not given here.

How the values were obtained:
PTEN-CaP2/H2B-GFP tumors = test: IVM chamber model of castration resistant prostate cancer (CRPC), tumor size; type: in vivo, mouse
Source text: Mouse prostate cancer cells PTEN-CaP2 were initially derived from the PTEN-P2 cell line and are homozygous for PTEN deletion. Complete ablation of PTEN results in intrinsic androgen-independence in the PTEN-null model. Although PTEN-CaP2 tumors express AR, they are resistant to castration in the absence of prior exposure to ADT.

[1] = Water uptake of Compound I (Karl Fischer coulometric analysis); type: physicochemical
Method: For the purposes of establishing material handling practices, Compound I was evaluated for water uptake in various controlled conditions. Compound I was exposed to 25° C./60% relative humidity and 40° C./75% relative humidity for up to one day. Approximately 200 mg of Compound I was accurately weighed into separate glass vials and placed uncapped in stability chambers. At various time points, the vials were removed, stoppered and crimped, and the water content for Compound I powder was determined by standard Karl Fischer coulometric analysis.

[2] = Forced degradation: stability of Compound I formulations in selected solvents and Carrier A (HPLC)
[3] = 10% HPβCD, 25° C./60% RH, t = 2 week

With `CC1=CC(=O)c2c(O)cccc2C1=O` [Compound I, 5-hydroxy-2-methylnaphthalene-1,4-dione] the “Tumor size relative to initial size” value (PTEN-CaP2/H2B-GFP tumors; combination of Compound I and castration) was 157%, the “Tumor size relative to initial size” value (PTEN-CaP2/H2B-GFP tumors; oral formulation of Compound I alone (680% castrated, 656% untreated)) was 293% and the “Effectiveness of combination with castration vs Compound I alone” value (PTEN-CaP2/H2B-GFP tumors; p=0.048) was “twice as effective”. It also gave a Water content ([1]; 25° C./60% RH, 0 hours) of 0.023%, a Water content ([1]; 25° C./60% RH, 5 hours) of 0.026% and a Water content ([1]; 25° C./60% RH, 24 hours) of 0.029%. The “Water content of Compound I powder (in words)” value ([1]; 25° C./60% and 40° C./75% relative humidity, up to one day) was “anhydrous”, the “Water content” value ([1]; 40° C./75% RH, 0 hours) was 0.023% and the “Water content” value ([1]; 40° C./75% RH, 5 hours) was 0.027%. The “Water content” value ([1]; 40° C./75% RH, 24 hours) was 0.031%, the “Sensitivity to water uptake” value ([1]; at up to 75% relative humidity) was “not sensitive to water uptake” and the “Solution Stability in Selected Solvents, Purity” value ([2]; 1% TW20, 25° C./60% RH, t = 0) was 97.00 % Area. The “Solution Stability in Selected Solvents, Purity” value ([2]; 1% TW20, 25° C./60% RH, t = 1 week, precipitation observed) was 64.23^‡ % Area, the “Solution Stability in Selected Solvents, Purity” value ([2]; 1% TW20, 25° C./60% RH, t = 2 week, precipitation observed) was 50.47^‡ % Area and the “Solution Stability in Selected Solvents, Purity” value ([2]; 1% TW20, 40° C./75% RH, t = 1 week, precipitation observed) was 47.19^‡ % Area. The “Solution Stability in Selected Solvents, Purity” value ([2]; 1% TW20, 40° C./75% RH, t = 2 week, precipitation observed) was 41.25^‡ % Area, the “Solution Stability in Selected Solvents, Purity” value ([2]; 1% TW80, 25° C./60% RH, t = 0) was 95.11 % Area and the “Solution Stability in Selected Solvents, Purity” value ([2]; 1% TW80, 25° C./60% RH, t = 1 week, precipitation observed) was 57.32^‡ % Area. The “Solution Stability in Selected Solvents, Purity” value ([2]; 1% TW80, 25° C./60% RH, t = 2 week, precipitation observed) was 47.62^‡ % Area, the “Solution Stability in Selected Solvents, Purity” value ([2]; 1% TW80, 40° C./75% RH, t = 1 week, precipitation observed) was 42.07^‡ % Area and the “Solution Stability in Selected Solvents, Purity” value ([2]; 1% TW80, 40° C./75% RH, t = 2 week, precipitation observed) was 40.53^‡ % Area. The “Solution Stability in Selected Solvents, Purity” value ([2]; 10% HPβCD, 25° C./60% RH, t = 0) was 99.49 % Area, the “Solution Stability in Selected Solvents, Purity” value ([2]; 10% HPβCD, 25° C./60% RH, t = 1 week) was 97.41 % Area and the “Solution Stability in Selected Solvents, % Potency” value [2, 3] was 91.09%. The “Solution Stability in Selected Solvents, Purity” value [2, 3] was 94.73 % Area, the “Solution Stability in Selected Solvents, Purity” value ([2]; 10% HPβCD, 40° C./75% RH, t = 1 week) was 91.22 % Area and the “Solution Stability in Selected Solvents, Purity” value ([2]; 10% HPβCD, 40° C./75% RH, t = 2 week) was 87.69 % Area. The “Solution Stability in Selected Solvents, Purity” value ([2]; ACN, 25° C./60% RH, t = 0) was 95.56 % Area, the “Solution Stability in Selected Solvents, Purity” value ([2]; ACN, 25° C./60% RH, t = 1 week) was 93.35 % Area and the “Solution Stability in Selected Solvents, Purity” value ([2]; ACN, 25° C./60% RH, t = 2 week) was 91.03 % Area. The “Solution Stability in Selected Solvents, Purity” value ([2]; ACN, 40° C./75% RH, t = 1 week) was 93.33 % Area, the “Solution Stability in Selected Solvents, Purity” value ([2]; ACN, 40° C./75% RH, t = 2 week) was 93.59 % Area and the “Solution Stability in Selected Solvents, Purity” value ([2]; Acetone, 25° C./60% RH, t = 0) was 94.35 % Area. The “Solution Stability in Selected Solvents, Purity” value ([2]; Acetone, 25° C./60% RH, t = 1 week) was 93.49 % Area, the “Solution Stability in Selected Solvents, Purity” value ([2]; Acetone, 25° C./60% RH, t = 2 week) was 92.27 % Area and the “Solution Stability in Selected Solvents, Purity” value ([2]; Acetone, 40° C./75% RH, t = 1 week) was 91.94 % Area. For the same molecule, the “Solution Stability in Selected Solvents, Purity” value ([2]; Acetone, 40° C./75% RH, t = 2 week) was 91.52 % Area, the “Stability of the formulation in Carrier A (sesame oil), Purity” value (“Stability of the formulation” for short) ([2]; Carrier A (NF), 25° C./60% RH, t = 3 day) was 99.2 Area - % and the “Stability of the formulation” value ([2]; Carrier A (NF), 25° C./60% RH, t = 10 day) was 99.4 Area - %. The “Stability of the formulation” value ([2]; Carrier A (NF), 40° C./75% RH, t = 3 day) was 98.9 Area - %, the “Stability of the formulation” value ([2]; Carrier A (NF), 40° C./75% RH, t = 10 day) was 99.2 Area - % and the “Stability of the formulation” value ([2]; Carrier A (NF: laboratory grade), t = 0, reported from a representative standard) was 99.7 Area - %. For the same molecule, the “Stability of the formulation” value ([2]; Carrier A (SR), 25° C./60% RH, t = 3 day) was 99.5 Area - %, the “Stability of the formulation” value ([2]; Carrier A (SR), 25° C./60% RH, t = 10 day) was 99.5 Area - % and the “Stability of the formulation” value ([2]; Carrier A (SR), 40° C./75% RH, t = 3 day) was 99.3 Area - %. For the same molecule, the “Stability of the formulation” value ([2]; Carrier A (SR), 40° C./75% RH, t = 10 day) was 99.3 Area - %, the “Stability of the formulation” value ([2]; Carrier A (SR: super refined grade), t = 0, reported from a representative standard) was 99.7 Area - % and the “Solution Stability in Selected Solvents, Purity” value ([2]; DCM, 25° C./60% RH, t = 0) was 92.84 % Area. For the same molecule, the “Solution Stability in Selected Solvents, Purity” value ([2]; DCM, 25° C./60% RH, t = 1 week) was 93.85 % Area, the “Solution Stability in Selected Solvents, Purity” value ([2]; DCM, 25° C./60% RH, t = 2 week) was 92.99 % Area and the “Solution Stability in Selected Solvents, Purity” value ([2]; DCM, 40° C./75% RH, t = 1 week) was 91.88 % Area. For the same molecule, the “Solution Stability in Selected Solvents, Purity” value ([2]; DCM, 40° C./75% RH, t = 2 week) was 81.23 % Area, the “Solution Stability in Selected Solvents, Purity” value ([2]; DMSO, 25° C./60% RH, t = 0) was 94.08 % Area and the “Solution Stability in Selected Solvents, Purity” value ([2]; DMSO, 25° C./60% RH, t = 1 week) was 93.47 % Area. The “Solution Stability in Selected Solvents, Purity” value ([2]; DMSO, 25° C./60% RH, t = 2 week) was 92.47 % Area, the “Solution Stability in Selected Solvents, Purity” value ([2]; DMSO, 40° C./75% RH, t = 1 week) was 89.28 % Area and the “Solution Stability in Selected Solvents, Purity” value ([2]; DMSO, 40° C./75% RH, t = 2 week) was 89.26 % Area. The “Solution Stability in Selected Solvents, Purity” value ([2]; Diluent, 25° C./60% RH, t = 0) was 99.77 % Area, the “Solution Stability in Selected Solvents, Purity” value ([2]; Diluent, 25° C./60% RH, t = 1 week) was 99.76 % Area and the “Solution Stability in Selected Solvents, Purity” value ([2]; Diluent, 25° C./60% RH, t = 2 week) was 99.79 % Area. The “Solution Stability in Selected Solvents, Purity” value ([2]; Diluent, 40° C./75% RH, t = 1 week) was 99.81 % Area, the “Solution Stability in Selected Solvents, Purity” value ([2]; Diluent, 40° C./75% RH, t = 2 week) was 99.82 % Area and the “Solution Stability in Selected Solvents, Purity” value ([2]; EA (poor chromatography observed with ethyl acetate), 25° C./60% RH, t = 0) was 80.16 % Area. The “Solution Stability in Selected Solvents, Purity” value ([2]; EA (poor chromatography), 25° C./60% RH, t = 1 week) was 77.38 % Area, the “Solution Stability in Selected Solvents, Purity” value ([2]; EA (poor chromatography), 25° C./60% RH, t = 2 week) was 76.03 % Area and the “Solution Stability in Selected Solvents, Purity” value ([2]; EA (poor chromatography), 40° C./75% RH, t = 1 week) was 77.28 % Area. The “Solution Stability in Selected Solvents, Purity” value ([2]; EA (poor chromatography), 40° C./75% RH, t = 2 week) was 77.13 % Area, the “Solution Stability in Selected Solvents, Purity” value ([2]; EtOH, 25° C./60% RH, t = 0) was 99.37 % Area and the “Solution Stability in Selected Solvents, Purity” value ([2]; EtOH, 25° C./60% RH, t = 1 week) was 96.08 % Area.
